In the supplement of paper PMC10307832:

How the values were obtained:
Assay in all cases: relative viability (nuclei count vs DMSO), 5 days (fraction); higher = more cells survive
Quizartinib + Linsitinib = compound: CC(C)(C)c1cc(NC(=O)Nc2ccc(-c3cn4c(n3)sc3cc(OCCN5CCOCC5)ccc34)cc2)no1 [Quizartinib] + C[C@]1(O)C[C@@H](c2nc(-c3ccc4ccc(-c5ccccc5)nc4c3)c3c(N)nccn32)C1 [Linsitinib] (partner 1 µM)
In short: (§1)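 Relative viability was taken as the ratio of nuclei in treated wells to nuclei in vehicle wells. Lung cancer cell lines in 1536-well plates received compounds by pin tool one day after seeding, either one drug alone or a fixed anchor-drug dose plus five library-drug doses (not always all listed) in √10 steps. Nuclei were counted on 4× images after 5 days of treatment, and values are medians of duplicate plates.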

YM155 + Decitabine = compound: COCC[n+]1c2c(n(Cc3cnccn3)c1C)C(=O)c1ccccc1C2=O [YM155] + Nc1ncn([C@H]2C[C@H](O)[C@@H](CO)O2)c(=O)n1 [Decitabine] (partner 2 µM)
In short: as §1

YM155 + Palbociclib = compound: COCC[n+]1c2c(n(Cc3cnccn3)c1C)C(=O)c1ccccc1C2=O [YM155] + CC(=O)c1c(C)c2cnc(Nc3ccc(N4CCNCC4)cn3)nc2n(C2CCCC2)c1=O [Palbociclib] (partner 0.5 µM)
In short: as §1

Quizartinib + Crizotinib = compound: CC(C)(C)c1cc(NC(=O)Nc2ccc(-c3cn4c(n3)sc3cc(OCCN5CCOCC5)ccc34)cc2)no1 [Quizartinib] + C[C@@H](Oc1cc(-c2cnn(C3CCNCC3)c2)cnc1N)c1c(Cl)ccc(F)c1Cl [Crizotinib] (partner 1 µM)
In short: as §1

Cell Line	relative viability (Quizartinib + Linsitinib; first compound 0.001 µM)	relative viability (Quizartinib + Linsitinib; first compound 0.003162 µM)	relative viability (Quizartinib + Linsitinib; first compound 0.01 µM)	relative viability (Quizartinib + Linsitinib; first compound 0.03162 µM)	relative viability (Quizartinib + Linsitinib; first compound 0.1 µM)	relative viability (YM155 + Decitabine; first compound 0.002 µM)	relative viability (YM155 + Decitabine; first compound 0.006325 µM)	relative viability (YM155 + Decitabine; first compound 0.02 µM)	relative viability (YM155 + Decitabine; first compound 0.06325 µM)	relative viability (YM155 + Palbociclib; first compound 0.002 µM)	relative viability (YM155 + Palbociclib; first compound 0.006325 µM)	relative viability (YM155 + Palbociclib; first compound 0.02 µM)	relative viability (YM155 + Palbociclib; first compound 0.06325 µM)	relative viability (Quizartinib + Crizotinib; first compound 0.001 µM)	relative viability (Quizartinib + Crizotinib; first compound 0.003162 µM)	relative viability (Quizartinib + Crizotinib; first compound 0.01 µM)	relative viability (Quizartinib + Crizotinib; first compound 0.03162 µM)	relative viability (Quizartinib + Crizotinib; first compound 0.1 µM)
HCC-15	0.799	0.823	0.874	0.828	0.814	0.634	0.627	0.704	0.658	0.702	0.854	0.701	0.749	0.798	0.79	0.817	0.802	0.81
NCI-H1915	0.761	1.03	1.11	1.08	1.15	0.277	0.256	0.264	0.267	0.494	0.533	0.539	0.552	0.83	0.841	0.905	0.983	0.944
NCI-H1666	0.771	0.753	0.868	0.631	0.865	0.749	0.671	0.78	0.726	0.616	0.701	0.651	0.611	0.917	0.829	1.07	0.777	0.974
NCI-H1651	0.858	0.946	1.06	0.727	0.93	0.667	0.613	0.627	0.586	0.548	0.519	0.494	0.53	0.757	0.9	0.877	0.86	0.896
NCI-H2347	0.943	0.956	0.969	0.908	1.07	0.64	0.612	0.648	0.539	0.422	0.399	0.389	0.37	0.719	0.788	0.704	0.585	0.762
NCI-H1944	0.865	1.16	1.12	1.39	1.24	0.416	0.395	0.415	0.453	0.337	0.296	0.328	0.325	1.11	1.09	1.15	1.21	1.11
HCC-366	0.501	0.695	0.656	0.615	0.554	0.358	0.366	0.345	0.316	0.37	0.412	0.439	0.27	0.405	0.411	0.689	0.517	0.467
NCI-H1734	0.752	0.871	0.901	0.855	0.842	0.474	0.525	0.468	0.446	0.362	0.313	0.374	0.345	0.582	0.656	0.854	0.602	0.549
201T	1.06	1.04	0.969	1.06	1.11	0.825	0.838	0.851	0.88	0.367	0.339	0.361	0.369	1	1	1.03	1.02	1.05
NCI-H1792	0.334	0.496	0.602	0.466	0.587	0.453	0.514	0.6	0.566	0.628	0.685	0.638	0.665	0.743	0.978	1.04	0.958	0.995
PC-3 [JPC-3]	0.853	0.951	0.931	0.988	0.933	0.778	0.796	0.89	0.701	0.526	0.565	0.571	0.52	0.978	0.961	1.01	0.955	0.955
HCC-827	0.99	0.924	1.05	0.962	0.994	0.352	0.408	0.299	0.354	0.511	0.481	0.505	0.552	0.934	0.877	0.961	0.934	0.879
LXF-289	0.899	0.944	1.02	0.958	0.92	0.354	0.39	0.371	0.379	0.584	0.628	0.612	0.605	0.743	0.787	0.821	0.8	0.726
NCI-H520	0.862	0.992	0.888	0.934	0.859	0.469	0.531	0.531	0.397	0.175	0.205	0.238	0.304	0.726	0.686	0.739	0.726	0.666
RERF-LC-KJ	0.79	0.878	0.941	0.843	0.92	0.649	0.644	0.787	0.737	1.09	1.1	1.02	0.985	0.8	0.596	1	0.795	0.798
ABC-1	0.662	0.732	0.702	0.675	0.722	–	0.84	0.383	0.308	–	0.662	0.269	0.283	0.922	0.799	1.22	0.527	1.3
